Experimental data reported in article PMC3269340, “Pharmacokinetics of memantine in rats and mice” (PLoS Currents, 2012).

What was measured:
[1] = Bidirectional Caco permeability; type: in vitro ADME; details: human, Caco-2, pH 7.4
Experimental: (§1) CacoReady ^TM 24-transwell plates with plated Caco cells were purchased from Advancell, and were prepared for the experiments following manufacturer’s instructions. Memantine and reference compounds (propranolol, digoxin and vinblatine) were added to either the apical or basolateral chambers of the transwell plate assembly at a concentration of 10 μM prepared in Hanks’ Balanced Salt Solution containing 25 mM HEPES (pH7.4). Lucifer Yellow (LY) was added to the donor buffer in all wells to assess viability of the cell layer. Since LY cannot freely permeate lipophilic barriers, results were rejected when a high degree of LY transport (>100nm/s) was observed. After a 1 h incubation at 37°C, aliquots were taken from both chambers and added to acetonitrile containing an analytical internal standard in a 96-well plate. Concentrations of compound in the samples were measured by (HPLC-MS/MS).
(§2) Papp values were calculated from the relationship:
(§3) Papp = ([compound]acceptor final × Va )/ (A × time ([compound]donor initial )
(§4) The efflux ratio (Er) was calculated as
(§5) Er = Papp (B to A) / Papp (A to B)

[2] = system: Caco2 cells; test: Bidirectional Caco permeability; type: in vitro ADME; details: Caco2 cells
Experimental: as §1, §2, §3, §4, §5

[3] = system: YAC128 mice; details: cited from earlier work
[4] = in vivo; details: male, C57Bl/6, mouse
Experimental: The goals of these studies were to evaluate the PK of memantine (hydrochloride salt) in Sprague-Dawley rats and C57Bl/6 mice following a single intravenous bolus (iv; 1 mg eq./kg), oral gavage (po; 1 and 10 mg eq./kg), or subcutaneous (sc; 1 and 10 mg eq./kg) administration.
Sprague Dawley (SD) rats (138 adult males), and C57Bl/6 mice (140 adult males), were obtained (Hilltop Laboratories, Scottsdale, PA); 123 per species were used in the study and the remainder provided blank matrix. Animals were individually identified by tail markings and were acclimated to the study environment for 16-21 days prior to dose administration. Animals were individually housed in suspended wire caging, and were kept on a 12h/12h light/dark cycle except when interrupted for study procedures. Average room temperature was regulated in the range 18 to 29°C, average relative humidity of 30-70%, and an average daily airflow >10 fresh air changes/h. Animals were fed LabDiet^Ò Certified Rodent Diet 5002 Meal food ad libitum, except during fasting prior to dose administration, and had access to water ad libitum.
Memantine was dosed as a solution in physiological saline as a single dose via intravenous bolus (1 mg eq./kg), oral gavage (po; 1 and 10 mg eq./kg), or subcutaneous (sc; 1 and 10 mg eq./kg) administration. The concentration of memantine in the 1 mg eq./kg iv, po, and sc solutions dosed to rats was 1 mg eq./mL, and the dose volume was 1 mL/kg. The concentration of memantine for the same dose level administered to mice was 0.2 mg eq./mL, and the dose volume was 5 mL/kg. The concentration of memantine in the 10mg eq./kg po and sc solutions was 5 mg eq./mL and the dose volume was 2 mL/kg for both rats and mice.
Details of the dose administration, body weights, clinical observations, plasma and brain sample collection and preparation are not shown in this report but are available upon request. Blood (for preparation of plasma) and brain samples were collected at 0.08, 0.25, 0.5, 1, 2, 4, 8, and 24h post-dose.
Since all time points were terminal, mean memantine concentrations per time point were used to calculate the composite PK parameters by non-compartmental analysis using WinNonlin program, version 5.2 (Pharsight Corp., Mountain View, California). A model was selected based on the vascular (iv bolus) or extravascular (po or sc) routes of administration. For the iv route, plasma concentration at time zero was back extrapolated from the first two observed post dose plasma concentrations. For the po and sc routes, concentration at time zero was assumed to be zero. Plasma and tissue concentrations below the limit of quantitation were treated as absent samples for the purpose of calculating the mean plasma concentration values or for calculating PK parameters.
The area under the plasma concentration versus time curve (AUC) was calculated using the linear trapezoidal method (linear interpolation). When appropriate, the terminal elimination phase of the PK profile was estimated based on the best fit (r^2) using at least the last three observed concentrations. PK parameters describing the systemic exposure of memantine in plasma and brain were estimated from observed (rather than predicted) plasma/brain concentrations, the dosing regimen, the AUC, and the terminal elimination phase rate constant (kel) for each group. The portion of the AUC from the last measurable concentration to infinity was estimated from the equation Ct/kel, where Ct represents the last measurable concentration. The extrapolated portion of the AUC was used for the determination of AUC0-∞. The percent bioavailability (%F) was calculated by dividing the dose normalized extravascular plasma AUC0-∞ by the dose normalized iv plasma AUC0-∞ times 100. The bioavailability calculations assumed concentrations were in the linear range.
Concentrations of memantine in rat and mouse plasma and brain were determined using an LC-MS/MS assay developed at ABC Laboratories.

## CC12CC3CC(C)(C1)CC(N)(C3)C2 [memantine]
[1]; 10 μM, pH7.4, 1 h, read-out: Caco Permeability AtoB
  Papp A→B at 1 h, 10 μM: 43.4 ×10⁻⁶ cm/s
[1]; 10 μM, pH7.4, 1 h, read-out: Caco Permeability BtoA
  Papp B→A at 1 h, 10 μM: 47 ×10⁻⁶ cm/s
[1]; Papp (B to A) / Papp (A to B), read-out: ER (efflux ratio)
  efflux ratio at 1 h, 10 μM: ~1
[2]
  MDR1 (Pgp) substrate: not a MDR1 (Pgp) substrate
[3]; YAC128 mice, 1 mg/kg in drinking water for 2 months, age 4 months
  CREB phosphorylation deficit: reversed the deficit in CREB phosphorylation
[3]; YAC128 mice, 1 mg/kg in drinking water for 2 months
  rotarod learning task: improvement in a rotarod learning task
[3]; YAC128 mice, high-dose (30 mg/kg)
  motor performance and neuropathology compared to vehicle-treated mice: worsened motor performance and neuropathology
[3]; YAC128 mice, high-dose
  HTT aggregate formation and TCP-1 expression levels: decrease HTT aggregate formation and TCP-1 expression levels
[3]; YAC128 mice, low-dose (not high-dose)
  striatal levels of Rhes protein: decreased striatal levels of Rhes protein
[3]; aged (12 months) YAC128 mice, low-dose
  neuropathology and motor deficits: rescue neuropathology as well as motor deficits
[4]
  Cmax and exposures increase, fold more than dose-proportional: ~ 1.5 fold
  Cmax/Cmin ratios: > 100
  Contribution of active transport to clearance: > 100%
  delay in Tmax for brain compared to plasma: 0.25 to 1.5 h
  elimination half-life: < 4 h
  total systemic clearance, times higher than GFR: ~4.5 fold
[4]; 10 mg/kg
  C max/ C min ratio: 760
  concentration at 24 h: 10 nM
[4]; 10 mg/kg, T max
  Tmax: 0.5 to 1 h
[4]; Tmax after extravascular administration
  Tmax: 0.25 to 0.5 h
[4]; brain elimination half-lives after extravascular administrations
  half-life: 2.16 to 3.05 h
[4]; elimination half-life
  half-life: 3 to 4 h
[4]; in vivo, iv, 1 mg/kg
  Cmax: 7700 nM
[4]; in vivo, sc, 1 mg/kg
  Cmax: 527 nM
[4]; iv, 1 mg/kg
  Half-life (t½): 2.98 h
  MRT inf: 2.35 h
  clearance: 63.5 mL/min/kg
[4]; iv, 1 mg/kg, Half-life (t½)
  half-life: 1.97 h
[4]; iv, 1 mg/kg, Observed Tmax
  Tmax: 1 h
[4]; iv, t 1/2
  half-life: 3 h
[4]; po
  bioavailability: 85%
[4]; po, 1 mg/kg
  Half-life (t½): 3.02 h
  bioavailability: 84.6%
  AUC(0-inf): 1.2 µM·h
[4]; po, 1 mg/kg, C max
  Cmax: 500 nM
[4]; po, 1 mg/kg, Half-life (t½)
  half-life: 1.86 h
[4]; po, 1 mg/kg, Observed Tmax
  Tmax: 0.5 h
[4]; po, 1 mg/kg, T max
  Tmax: 0.5 h
[4]; po, 10 mg/kg
  Half-life (t½): 3.05 h
  bioavailability: 125%
  AUC(0-inf): 18.2 µM·h
[4]; po, 10 mg/kg, C max
  Cmax: 7600 nM
[4]; po, 10 mg/kg, Half-life (t½)
  half-life: 2.92 h
[4]; sc, 1 mg/kg
  Half-life (t½): 2.16 h
  bioavailability: 97.8%
[4]; sc, 1 mg/kg, Half-life (t½)
  half-life: 1.64 h
[4]; sc, 1 mg/kg, Observed Cmax
  Cmax: 5360 nM
[4]; sc, 10 mg/kg
  Half-life (t½): 3.00 h
  bioavailability: 150%
[4]; sc, 10 mg/kg, Half-life (t½)
  half-life: 3.07 h
